{
  "source": "patent US10010614B2",
  "about": "“Derivatives of GLP-1 like peptides, and uses thereof” (Novo Nordisk A/S, priority 2013, dated 2018)",
  "key": {"[1]": {"target": "T1, human GLP-1 receptor (Homo sapiens, UniProt P43220)", "T1 construct": "expressed in transfected cells; host or cells: membranes prepared from BHK cells (parent line BHKTS13), clone FCW467-12A", "T1 sequence (P43220 24-463)": "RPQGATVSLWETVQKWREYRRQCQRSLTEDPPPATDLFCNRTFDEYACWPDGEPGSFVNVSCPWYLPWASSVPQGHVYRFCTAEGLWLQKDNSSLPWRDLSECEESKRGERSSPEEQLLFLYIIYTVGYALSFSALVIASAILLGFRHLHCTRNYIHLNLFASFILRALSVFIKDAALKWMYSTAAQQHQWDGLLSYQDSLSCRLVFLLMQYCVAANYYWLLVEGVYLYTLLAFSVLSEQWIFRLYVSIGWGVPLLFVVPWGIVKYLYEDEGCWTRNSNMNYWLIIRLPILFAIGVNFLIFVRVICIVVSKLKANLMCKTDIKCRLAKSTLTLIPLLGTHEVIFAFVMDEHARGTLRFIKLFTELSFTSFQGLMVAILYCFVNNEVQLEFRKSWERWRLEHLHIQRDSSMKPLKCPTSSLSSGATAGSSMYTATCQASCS", "assay": "In vitro potency, CRE luciferase reporter gene assay in BHK cells expressing the human GLP-1 receptor", "type": "cell-based", "details": "whole cell reporter gene assay, 3 h incubation, no HSA, averages of at least two replicates", "summary_of_the_method": "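Stably transfected BHK cells (5×10^3/well) expressing human GLP-1R with a CRE-luciferase reporter; compounds diluted in buffer with 2% ovalbumin and 0.2% Pluronic F-68, final 1×10^−7 to 1×10^−14 M. Incubated 3 h at 37 °C, 5% CO2, then luminescence read; potency from non-linear log(agonist)–response fit, mean of ≥2 replicates.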"}, "[2]": {"assay": "Pharmacokinetic study in minipigs (i.v.)", "type": "in vivo", "details": "male, Göttingen, minipig, plasma, iv; read-out: Terminal half-live (converted)"}, "[3]": {"target": "T1, human GLP-1 receptor", "assay": "GLP-1 receptor binding, competitive binding assay (125I-GLP-1, SPA) on isolated membranes;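 note: test compounds added at a range of concentrations to membranes from cells expressing the human GLP-1 receptor, scored by displacement of labelled ligand, read with WGA SPA beads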", "method": "The purpose of this example is to test the receptor binding of the GLP-1 derivatives in vitro. The receptor binding is a measure of affinity of a derivative for the human GLP-1 receptor.\nIn this type of assay a labelled ligand (in this case ^125I-GLP-1) is bound to the receptor. Each derivative is added in a series of concentrations to isolated membranes containing the human GLP-1 receptor and displacement of the labelled ligand is monitored. The receptor binding is reported as the concentration at which half of the labelled ligand is displaced from the receptor, the IC50 value.\nThe following chemicals were used in the assay: Human serum albumin (HSA) (Sigma A1653), DMEM w/o phenol red (Gibco 11880-028), Pen/strep (Invitrogen 15140-122), G418 (Invitrogen 10131-027), 1 M Hepes (Gibco 15630), EDTA (Invitrogen 15575-038), PBS (Invitrogen 14190-094), fetal calf serum (Invitrogen 16140-071), EGTA, MgCl2 (Merck 1.05832.1000), Tween 20 (Amresco 0850C335), SPA particles (wheat germ agglutinin (WGA) SPA beads, Perkin Elmer RPNQ0001), [^125I]-GLP-1]-(7-36)NH2 (produced in-house), OptiPlate™-96 (Packard 6005290).\nBuffer 1 consisted of 20 mM Na-HEPES plus 10 mM EDTA and pH was adjusted to 7.4. Buffer 2 consisted of 20 mM Na-HEPES plus 0.1 mM EDTA and pH was adjusted to 7.4. Assay buffer consisted of 50 mM HEPES supplemented with 5 mM EGTA, 5 mM MgCl2, 0.005% Tween 20 and pH was adjusted to 7.4. An 8% albumin stock consisted of HSA dissolved at 8% (w/v) in assay buffer. An 0.02% albumin stock consisted of HSA dissolved at 0.02% (w/v) in assay buffer.\nThe cells express the human GLP-1 receptor.\nThe cells were grown at 5% CO2 in DMEM, 10% fetal calf serum, 1% Pen/Strep (Penicillin/Streptomycin) and 1.0 mg/ml of the selection marker G418.\nTo make a membrane preparation the cells were grown to approximately 80% confluence. The cells were washed twice in phosphate-buffered saline and harvested. The cells were pelleted using a brief centrifugation and the cell pellet was kept on ice. The cell pellet was homogenised with ULTRA-THURRAX™ dispersing instrument for 20-30 seconds in a suitable amount of buffer 1 (e.g., 10 ml). The homogenate was centrifuged for 15 minutes. The pellet was re-suspended (homogenised) in 10 ml buffer 2 and centrifuged. This step was repeated once more. The resulting pellet was re-suspended in buffer 2 and the protein concentration was determined. The membranes were aliquoted and stored at minus 80° C.\nFor the receptor binding assay in the presence of low HSA (0.005%) 50 μl of the assay buffer was added to each well of an assay plate.\nFor the receptor binding assay in the presence of high HSA (2%) 50 μl of the 8% albumin stock was added to each well of an assay plate.\nCell membrane aliquots were thawed and diluted to their working concentration. Fifty μl were added to each well in the assay plate.\nWGA SPA beads were suspended in assay buffer at 20 mg/ml. The suspension was diluted to 10 mg/ml in assay buffer just prior to addition to the assay plate. Fifty μl were added to each well in the assay plate.\nThe incubation was started by adding 25 μl of 480 pM solution of [^125I]-GLP-1]-(7-36)NH2 to each well of the assay plate. A 25 μl aliquot was reserved for measuring total counts/well.\nThe assay plate was incubated for 2 h at 30° C.\nThe assay plate was centrifuged for 10 min.\nThe assay plate was read in a Packard TopCount NXT instrument.\nThe data from the TopCount instrument were transferred to GraphPad Prism software. The software averaged the values for the replicates and performed a non-linear regression. IC50 values were calculated by the software and reported in nM."}},
  "note": "Numbered stars: 1 amine (or outer) side, 2 acyl side, 3 side chain; on linkers, the order of the positions; unused ones are H or OH. Square brackets hold non-standard residues; d marks the D form. Side chains are listed from the residue outwards. Peptide text beside a SMILES is read from it. * marks the point of attachment. C20 diacid = O=C(O)CCCCCCCCCCCCCCCCCCC(=O)*; γGlu = O=C(O)[C@H](CCC(=O)[*:2])N[*:1]; Trx = NC[C@H]1CC[C@H](C(=O)O)CC1; AEEA = NCCOCCOCC(=O)O; Aib = CC(C)(N)C(=O)O",
  "data": [
    {"smiles": "CC[C@H](C)[C@H](NC(=O)[C@H](Cc1ccccc1)NC(=O)[C@H](CCC(=O)O)NC(=O)[C@H](CCCNC(=N)N)NC(=O)[C@H](C)NC(=O)[C@H](C)NC(=O)[C@H](CCC(N)=O)NC(=O)[C@H](CCC(=O)O)NC(=O)[C@H](CCC(=O)O)NC(=O)[C@H](CC(C)C)NC(=O)[C@H](Cc1ccc(O)cc1)NC(=O)[C@H](CCCCNC(=O)COCCOCCNC(=O)COCCOCCNC(=O)CC[C@H](NC(=O)[C@H]1CC[C@H](CNC(=O)CCCCCCCCCCCCCCCCCCC(=O)O)CC1)C(=O)O)NC(=O)[C@H](CO)NC(=O)[C@@H](NC(=O)[C@H](CC(=O)O)NC(=O)[C@H](CO)NC(=O)[C@@H](NC(=O)[C@H](Cc1ccccc1)NC(=O)[C@@H](NC(=O)CNC(=O)[C@H](CCC(=O)O)NC(=O)C(C)(C)NC(=O)[C@@H](N)Cc1c[nH]cn1)[C@@H](C)O)[C@@H](C)O)C(C)C)C(=O)N[C@@H](C)C(=O)N[C@@H](Cc1c[nH]c2ccccc12)C(=O)N[C@@H](CC(C)C)C(=O)N[C@H](C(=O)N[C@@H](CCCNC(=N)N)C(=O)NCC(=O)N[C@@H](CCCNC(=N)N)C(=O)NCC(=O)NCC(=O)NCC(=O)NCC(=O)N[C@@H](CO)C(=O)N[C@@H](CCCCNC(=O)COCCOCCNC(=O)COCCOCCNC(=O)CC[C@H](NC(=O)[C@H]1CC[C@H](CNC(=O)CCCCCCCCCCCCCCCCCCC(=O)O)CC1)C(=O)O)C(=O)O)C(C)C", "note": "[Example 6] (H-H[Aib]EGTFTSDVSK([AEEA-AEEA-γGlu-Trx-C20 diacid])YLEEQAAREFIAWLVRGRGGGGSK([AEEA-AEEA-γGlu-Trx-C20 diacid])-OH)", "values": [
      {"measurement": "EC50", "setting": "[1]", "value": 0.093, "unit": "nM"},
      {"measurement": "half-life", "setting": "[2]", "value": 99, "unit": "h"},
      {"measurement": "IC50", "setting": "[3]; High HSA IC50 (nM), high serum albumin (2.0% HSA final assay concentration)", "value": "≥ 1000", "unit": "nM"},
      {"measurement": "IC50", "setting": "[3]; Low HSA IC50 (nM), low serum albumin (max. 0.001% final assay concentration)", "value": 1, "unit": "nM"}
    ]}
  ]
}
